Measurements from patent US20050065062A1, “Method of formulating a pharmaceutical composition” (3M Innovative Properties Company, priority 2003, published 2005).

Experiment: Franz diffusion cell, membrane diffusion across hairless mouse skin
Type: in vitro ADME
Settings: for relative order for membrane diffusion rate: ranking of excipients
Experimental: Diffusion of the compounds through hairless mouse skin into phosphate buffer in a Franz cell was carried out and measured as described in Example 1, with Sudan I being used in place of Fat Brown RR.

Nc1ccc(N=Nc2cccc3ccccc23)c(N)c1 [Fat Brown RR]
relative order for membrane diffusion rate: alpha-terpineol>propylene glycol>isostearic acid>tetraglycol
CUMULATIVE AMOUNT OF COMPOUND DIFFUSED ACROSS SKIN (saturated solution in alpha-terpineol, 0 hours): 0 µg/mL
CUMULATIVE AMOUNT OF COMPOUND DIFFUSED ACROSS SKIN (saturated solution in alpha-terpineol, 6 hours): 168 µg/mL
CUMULATIVE AMOUNT OF COMPOUND DIFFUSED ACROSS SKIN (saturated solution in alpha-terpineol, 12 hours): 444 µg/mL
CUMULATIVE AMOUNT OF COMPOUND DIFFUSED ACROSS SKIN (saturated solution in alpha-terpineol, 18 hours): 812 µg/mL
CUMULATIVE AMOUNT OF COMPOUND DIFFUSED ACROSS SKIN (saturated solution in alpha-terpineol, 24 hours): 1162 µg/mL
CUMULATIVE AMOUNT OF COMPOUND DIFFUSED ACROSS SKIN (saturated solution in isostearic acid, 0 hours): 0 µg/mL
CUMULATIVE AMOUNT OF COMPOUND DIFFUSED ACROSS SKIN (saturated solution in isostearic acid, 6 hours): 41 µg/mL
CUMULATIVE AMOUNT OF COMPOUND DIFFUSED ACROSS SKIN (saturated solution in isostearic acid, 12 hours): 92 µg/mL
CUMULATIVE AMOUNT OF COMPOUND DIFFUSED ACROSS SKIN (saturated solution in isostearic acid, 18 hours): 169 µg/mL
CUMULATIVE AMOUNT OF COMPOUND DIFFUSED ACROSS SKIN (saturated solution in isostearic acid, 24 hours): 262 µg/mL
CUMULATIVE AMOUNT OF COMPOUND DIFFUSED ACROSS SKIN (saturated solution in propylene glycol, 0 hours): 0 µg/mL
CUMULATIVE AMOUNT OF COMPOUND DIFFUSED ACROSS SKIN (saturated solution in propylene glycol, 6 hours): 84 µg/mL
CUMULATIVE AMOUNT OF COMPOUND DIFFUSED ACROSS SKIN (saturated solution in propylene glycol, 12 hours): 221 µg/mL
CUMULATIVE AMOUNT OF COMPOUND DIFFUSED ACROSS SKIN (saturated solution in propylene glycol, 18 hours): 445 µg/mL
CUMULATIVE AMOUNT OF COMPOUND DIFFUSED ACROSS SKIN (saturated solution in propylene glycol, 24 hours): 677 µg/mL
CUMULATIVE AMOUNT OF COMPOUND DIFFUSED ACROSS SKIN (saturated solution in tetraglycol, 0 hours): 0 µg/mL
CUMULATIVE AMOUNT OF COMPOUND DIFFUSED ACROSS SKIN (saturated solution in tetraglycol, 6 hours): 13 µg/mL
CUMULATIVE AMOUNT OF COMPOUND DIFFUSED ACROSS SKIN (saturated solution in tetraglycol, 12 hours): 25 µg/mL
CUMULATIVE AMOUNT OF COMPOUND DIFFUSED ACROSS SKIN (saturated solution in tetraglycol, 18 hours): 39 µg/mL
CUMULATIVE AMOUNT OF COMPOUND DIFFUSED ACROSS SKIN (saturated solution in tetraglycol, 24 hours): 52 µg/mL

Oc1ccc2ccccc2c1N=Nc1ccccc1 [Sudan I]
CUMULATIVE AMOUNT OF COMPOUND DIFFUSED ACROSS SKIN (Table 3, saturated solution in alpha-terpineol, 0 hours): 0 μg/10 mL
CUMULATIVE AMOUNT OF COMPOUND DIFFUSED ACROSS SKIN (Table 3, saturated solution in alpha-terpineol, 24 hours): 72 μg/10 mL
CUMULATIVE AMOUNT OF COMPOUND DIFFUSED ACROSS SKIN (Table 3, saturated solution in alpha-terpineol, 50 hours): 201 μg/10 mL
CUMULATIVE AMOUNT OF COMPOUND DIFFUSED ACROSS SKIN (Table 3, saturated solution in alpha-terpineol, 59 hours): 259 μg/10 mL
CUMULATIVE AMOUNT OF COMPOUND DIFFUSED ACROSS SKIN (Table 3, saturated solution in isostearic acid, 0 hours): 0 μg/10 mL
CUMULATIVE AMOUNT OF COMPOUND DIFFUSED ACROSS SKIN (Table 3, saturated solution in isostearic acid, 24 hours): 38 μg/10 mL
CUMULATIVE AMOUNT OF COMPOUND DIFFUSED ACROSS SKIN (Table 3, saturated solution in isostearic acid, 50 hours): 118 μg/10 mL
CUMULATIVE AMOUNT OF COMPOUND DIFFUSED ACROSS SKIN (Table 3, saturated solution in isostearic acid, 59 hours): 149 μg/10 mL
CUMULATIVE AMOUNT OF COMPOUND DIFFUSED ACROSS SKIN (Table 3, saturated solution in propylene glycol, 0 hours): 0 μg/10 mL
CUMULATIVE AMOUNT OF COMPOUND DIFFUSED ACROSS SKIN (Table 3, saturated solution in propylene glycol, 24 hours): 31 μg/10 mL
CUMULATIVE AMOUNT OF COMPOUND DIFFUSED ACROSS SKIN (Table 3, saturated solution in propylene glycol, 50 hours): 108 μg/10 mL
CUMULATIVE AMOUNT OF COMPOUND DIFFUSED ACROSS SKIN (Table 3, saturated solution in propylene glycol, 59 hours): 142 μg/10 mL
CUMULATIVE AMOUNT OF COMPOUND DIFFUSED ACROSS SKIN (Table 3, saturated solution in tetraglycol, 0 hours): 0 μg/10 mL
CUMULATIVE AMOUNT OF COMPOUND DIFFUSED ACROSS SKIN (Table 3, saturated solution in tetraglycol, 24 hours): 11 μg/10 mL
CUMULATIVE AMOUNT OF COMPOUND DIFFUSED ACROSS SKIN (Table 3, saturated solution in tetraglycol, 50 hours): 61 μg/10 mL
CUMULATIVE AMOUNT OF COMPOUND DIFFUSED ACROSS SKIN (Table 3, saturated solution in tetraglycol, 59 hours): 81 μg/10 mL
relative order for membrane diffusion rate: alpha-terpineol>tetraglycol
